Patent publication US20060211703A1, “Substituted alkyl-pyridazinones for the treatment of memory and learning malfunctions” (priority 2003, published 2006)
“Also recorded” adds a separate entry of the source.

How the values were obtained:
Male Wistar rats = experiment: step through-type passive avoidance learning test; assay type: in vivo, rat; settings: 30 min before test, FIG. 1
Procedure: Male Wistar rats weighing 200-220 g were used. The animals were obtained from Charles River Co. They were kept in a room with normal 12-12 h light dark cycle (light on: 06:00) at relative humidity of 60±10%.
The experiment was performed in a five-channel “step through”-type passive avoidance learning apparatus. The equipment consisted of to adjacent Plexi-glass box of 20×20×16 cm. One of them was made of regular transparent Plexi-glass and the other one was made of black, non-transparent Plexi-glass. The boxes were connected with a 7.5×8 cm passageway, equipped with a computer-controlled guillotine-door. The passage of the rats through the door was detected by infrared photocells arranged in two parallel lines in the opening of the passageway. The door was automatically closed when the animals passed through. The dark compartment was equipped with stainless steel grid floor through which electric foot shocks could have been delivered to the animals. […]
The individually numbered animals were placed into the light compartment of the equipment. […] Step through latency was automatically determined. […]
After 24 h the animals were placed again in the light compartment of the test apparatus and step-through latency was measured as described at Acquisition day, except that no foot shock was applied to the animals in any group on the second day. […]

[1] = known anxiolytic compounds, comparison statement; cited from earlier work

O=c1cc(NCCN2CCN(c3cccc4c3OCCO4)CC2)cn[nH]1 [compound A, 5-[2-[4-(2,3-dihydro-benzo[1,4]dioxine-5-yl)-piperazine-1-yl]-ethylamine]-2H-pyridazine-3-one]
step-through latency into the dark compartment (effect on acquisition / learning) (Male Wistar rats; 1 mg/kg ip. at Day 1 (Acquisition), latency measured at Day 2, vs shocked vehicle control): significantly increased; also recorded: further increased
step-through latency into the dark compartment (effect on recall / long term memory) (Male Wistar rats; 1 mg/kg ip. at Day 2 (Retention), vs shocked vehicle control): significantly increased

CN1C(=O)CN=C(c2ccccc2)c2cc(Cl)ccc21 [diazepam]
effect on memory [1]: deleterious
